Experimental data as given in ChEMBL document CHEMBL1140398, “New dual inhibitors of EGFR and HER2 protein tyrosine kinases” (Bioorg Med Chem Lett, 2005).

Experiments:
[1] = target: Epidermal growth factor receptor (Homo sapiens, UniProt P00533); assay: In vitro inhibitory concentration against EGFR cytoplasmic sequence expressed in Sf9 cells
[2] = target: Receptor tyrosine-protein kinase erbB-2 (Homo sapiens, UniProt P04626); assay: In vitro inhibitory concentration against HER2 cytoplasmic sequence expressed in Sf9 cells
Focal adhesion kinase 1 = Focal adhesion kinase 1 (Homo sapiens, UniProt Q05397); assay: Inhibitory concentration against FAK cytoplasmic sequence; Reported as mean (variability <15%)
[3] = target: MAP kinase-activated protein kinase 2 (Homo sapiens, UniProt P49137); assay: Inhibitory concentration against MAPKAP kinase 2 cytoplasmic sequence; Reported as mean (variability <15%)
[4] = target: Hepatocyte growth factor receptor (Homo sapiens, UniProt P08581); assay: Inhibitory concentration against Met cytoplasmic sequence; Reported as mean (variability <15%)
[5] = target: Insulin-like growth factor 1 receptor (Homo sapiens, UniProt P08069); assay: Inhibitory concentration against IGF-1R cytoplasmic sequence; Reported as mean (variability <15%)
[6] = target: Mitogen-activated protein kinase 14 (Homo sapiens, UniProt Q16539); assay: Inhibitory concentration against p38 cytoplasmic sequence; Reported as mean (variability <15%)

Sequence of Receptor tyrosine-protein kinase erbB-2 (P04626 whole entry): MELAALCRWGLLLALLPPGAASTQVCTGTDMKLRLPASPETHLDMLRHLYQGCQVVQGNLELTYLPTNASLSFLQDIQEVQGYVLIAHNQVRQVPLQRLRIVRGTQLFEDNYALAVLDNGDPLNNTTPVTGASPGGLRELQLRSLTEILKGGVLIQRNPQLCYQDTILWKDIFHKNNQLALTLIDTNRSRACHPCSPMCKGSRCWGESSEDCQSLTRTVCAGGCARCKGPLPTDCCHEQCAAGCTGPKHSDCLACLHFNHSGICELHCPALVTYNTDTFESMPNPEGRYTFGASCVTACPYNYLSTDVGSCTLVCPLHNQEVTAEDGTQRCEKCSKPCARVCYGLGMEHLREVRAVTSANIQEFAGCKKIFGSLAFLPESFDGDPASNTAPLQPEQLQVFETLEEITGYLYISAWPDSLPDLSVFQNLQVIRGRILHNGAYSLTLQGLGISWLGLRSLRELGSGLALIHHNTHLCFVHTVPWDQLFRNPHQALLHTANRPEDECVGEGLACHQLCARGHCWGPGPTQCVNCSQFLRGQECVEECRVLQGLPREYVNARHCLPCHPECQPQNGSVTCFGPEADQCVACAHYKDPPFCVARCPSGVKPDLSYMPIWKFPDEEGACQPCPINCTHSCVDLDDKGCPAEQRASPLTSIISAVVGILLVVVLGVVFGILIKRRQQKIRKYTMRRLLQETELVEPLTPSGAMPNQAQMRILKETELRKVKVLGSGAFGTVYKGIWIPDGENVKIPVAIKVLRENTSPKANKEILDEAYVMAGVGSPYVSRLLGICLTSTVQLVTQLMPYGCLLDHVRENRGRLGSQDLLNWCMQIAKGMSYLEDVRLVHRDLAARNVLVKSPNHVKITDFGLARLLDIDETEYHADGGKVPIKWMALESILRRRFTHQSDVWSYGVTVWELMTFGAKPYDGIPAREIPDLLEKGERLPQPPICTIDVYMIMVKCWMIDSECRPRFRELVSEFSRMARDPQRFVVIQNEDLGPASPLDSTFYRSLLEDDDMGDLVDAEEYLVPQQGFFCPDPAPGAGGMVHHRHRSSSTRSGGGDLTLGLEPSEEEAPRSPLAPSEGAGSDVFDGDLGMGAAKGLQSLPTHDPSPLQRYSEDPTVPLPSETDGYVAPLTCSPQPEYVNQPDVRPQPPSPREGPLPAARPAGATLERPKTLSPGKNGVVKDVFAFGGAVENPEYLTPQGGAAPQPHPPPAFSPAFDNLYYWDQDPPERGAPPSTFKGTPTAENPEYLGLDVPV
Sequence of Epidermal growth factor receptor (P00533 whole entry): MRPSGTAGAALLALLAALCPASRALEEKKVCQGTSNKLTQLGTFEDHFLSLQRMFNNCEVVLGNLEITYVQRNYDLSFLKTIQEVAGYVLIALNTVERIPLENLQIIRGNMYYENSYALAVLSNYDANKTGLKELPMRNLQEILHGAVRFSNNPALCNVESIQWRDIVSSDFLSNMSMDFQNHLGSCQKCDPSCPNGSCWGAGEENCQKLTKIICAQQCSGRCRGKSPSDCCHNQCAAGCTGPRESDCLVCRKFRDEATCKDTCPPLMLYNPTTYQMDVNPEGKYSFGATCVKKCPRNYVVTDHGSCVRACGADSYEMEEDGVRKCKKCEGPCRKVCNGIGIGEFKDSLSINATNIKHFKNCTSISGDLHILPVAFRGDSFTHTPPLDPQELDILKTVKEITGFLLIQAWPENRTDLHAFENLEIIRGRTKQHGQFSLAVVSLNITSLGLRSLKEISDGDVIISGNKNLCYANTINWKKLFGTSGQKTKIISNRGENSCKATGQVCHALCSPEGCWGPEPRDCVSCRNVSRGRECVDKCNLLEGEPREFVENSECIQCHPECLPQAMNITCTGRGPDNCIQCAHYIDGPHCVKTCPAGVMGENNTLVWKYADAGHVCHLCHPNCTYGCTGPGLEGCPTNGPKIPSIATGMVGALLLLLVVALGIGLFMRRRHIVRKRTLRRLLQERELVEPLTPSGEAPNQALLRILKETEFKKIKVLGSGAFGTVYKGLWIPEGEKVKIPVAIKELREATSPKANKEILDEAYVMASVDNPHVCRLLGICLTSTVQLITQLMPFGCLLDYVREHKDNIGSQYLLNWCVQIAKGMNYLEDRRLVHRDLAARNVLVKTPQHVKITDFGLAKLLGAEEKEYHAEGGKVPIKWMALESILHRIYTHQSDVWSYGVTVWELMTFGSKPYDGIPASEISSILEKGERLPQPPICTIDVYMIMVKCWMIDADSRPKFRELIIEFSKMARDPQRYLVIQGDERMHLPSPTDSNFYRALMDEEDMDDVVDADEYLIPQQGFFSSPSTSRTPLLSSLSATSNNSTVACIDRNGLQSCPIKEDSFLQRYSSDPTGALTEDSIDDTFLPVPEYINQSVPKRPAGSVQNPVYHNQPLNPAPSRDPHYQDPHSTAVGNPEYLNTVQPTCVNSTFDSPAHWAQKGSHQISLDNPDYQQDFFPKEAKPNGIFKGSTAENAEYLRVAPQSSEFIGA
Sequence of Focal adhesion kinase 1 (Q05397 whole entry): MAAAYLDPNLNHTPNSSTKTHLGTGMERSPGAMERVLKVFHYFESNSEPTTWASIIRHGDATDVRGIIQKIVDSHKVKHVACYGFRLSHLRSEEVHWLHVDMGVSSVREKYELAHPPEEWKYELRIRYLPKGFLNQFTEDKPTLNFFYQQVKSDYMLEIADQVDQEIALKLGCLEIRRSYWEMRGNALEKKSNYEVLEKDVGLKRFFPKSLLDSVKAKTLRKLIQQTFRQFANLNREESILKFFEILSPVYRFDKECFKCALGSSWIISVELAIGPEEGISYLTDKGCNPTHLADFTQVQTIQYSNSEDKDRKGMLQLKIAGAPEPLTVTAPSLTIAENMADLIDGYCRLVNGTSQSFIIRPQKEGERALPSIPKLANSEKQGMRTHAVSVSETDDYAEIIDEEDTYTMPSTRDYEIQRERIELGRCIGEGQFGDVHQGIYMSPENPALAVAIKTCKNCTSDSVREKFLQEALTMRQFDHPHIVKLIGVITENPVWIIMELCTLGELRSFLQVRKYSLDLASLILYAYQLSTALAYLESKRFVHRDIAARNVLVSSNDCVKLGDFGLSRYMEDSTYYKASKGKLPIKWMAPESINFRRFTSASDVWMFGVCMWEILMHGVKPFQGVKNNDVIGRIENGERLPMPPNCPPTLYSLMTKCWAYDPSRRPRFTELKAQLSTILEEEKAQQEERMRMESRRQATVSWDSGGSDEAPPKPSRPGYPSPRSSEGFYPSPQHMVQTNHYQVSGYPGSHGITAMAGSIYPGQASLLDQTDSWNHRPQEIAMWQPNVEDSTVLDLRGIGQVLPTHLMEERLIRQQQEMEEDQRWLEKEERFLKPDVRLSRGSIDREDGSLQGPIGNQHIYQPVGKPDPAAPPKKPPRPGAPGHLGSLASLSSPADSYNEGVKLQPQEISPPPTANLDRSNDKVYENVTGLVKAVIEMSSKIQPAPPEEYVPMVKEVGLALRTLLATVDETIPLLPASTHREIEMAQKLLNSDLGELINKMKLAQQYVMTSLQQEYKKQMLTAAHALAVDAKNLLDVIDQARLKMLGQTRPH
Sequence of Hepatocyte growth factor receptor (P08581 whole entry): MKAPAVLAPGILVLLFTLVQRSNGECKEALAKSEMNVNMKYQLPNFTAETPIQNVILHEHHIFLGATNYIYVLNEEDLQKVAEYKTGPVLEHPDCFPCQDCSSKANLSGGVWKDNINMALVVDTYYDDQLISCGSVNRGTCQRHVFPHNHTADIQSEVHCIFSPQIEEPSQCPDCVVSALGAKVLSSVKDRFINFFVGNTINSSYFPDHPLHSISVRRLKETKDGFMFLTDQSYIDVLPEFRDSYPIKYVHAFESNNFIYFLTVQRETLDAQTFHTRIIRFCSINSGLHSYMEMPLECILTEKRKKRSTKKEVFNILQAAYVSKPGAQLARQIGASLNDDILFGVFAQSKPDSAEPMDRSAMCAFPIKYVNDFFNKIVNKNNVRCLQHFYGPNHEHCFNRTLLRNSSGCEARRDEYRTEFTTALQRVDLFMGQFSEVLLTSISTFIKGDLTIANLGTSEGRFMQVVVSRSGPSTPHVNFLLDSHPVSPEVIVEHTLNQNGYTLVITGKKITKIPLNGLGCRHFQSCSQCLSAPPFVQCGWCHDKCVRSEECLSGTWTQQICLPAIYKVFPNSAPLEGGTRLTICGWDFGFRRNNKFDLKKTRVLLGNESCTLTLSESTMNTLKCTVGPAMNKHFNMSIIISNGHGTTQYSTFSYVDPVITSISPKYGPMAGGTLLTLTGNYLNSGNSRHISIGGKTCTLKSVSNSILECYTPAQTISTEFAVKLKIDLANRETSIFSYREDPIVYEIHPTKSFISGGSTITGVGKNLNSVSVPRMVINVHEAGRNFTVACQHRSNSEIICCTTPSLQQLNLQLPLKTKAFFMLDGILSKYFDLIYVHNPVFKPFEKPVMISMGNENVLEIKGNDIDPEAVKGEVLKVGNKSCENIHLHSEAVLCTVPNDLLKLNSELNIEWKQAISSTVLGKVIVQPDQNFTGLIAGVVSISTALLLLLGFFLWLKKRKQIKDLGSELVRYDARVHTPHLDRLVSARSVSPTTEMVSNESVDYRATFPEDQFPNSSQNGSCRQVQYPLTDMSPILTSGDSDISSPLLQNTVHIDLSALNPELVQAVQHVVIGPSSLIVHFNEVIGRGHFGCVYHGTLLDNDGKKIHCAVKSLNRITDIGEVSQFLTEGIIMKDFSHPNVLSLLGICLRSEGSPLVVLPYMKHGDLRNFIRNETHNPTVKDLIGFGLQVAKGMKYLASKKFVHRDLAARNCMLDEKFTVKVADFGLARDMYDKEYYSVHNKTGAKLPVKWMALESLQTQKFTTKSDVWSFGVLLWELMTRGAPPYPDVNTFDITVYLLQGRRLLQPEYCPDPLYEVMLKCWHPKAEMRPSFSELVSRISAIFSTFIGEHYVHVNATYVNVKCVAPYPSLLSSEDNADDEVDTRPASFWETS

SMILES	IC50 [1] [µM]	IC50 [2] [µM]	also measured
CCc1c(C(=O)O)cn2ncnc(Nc3ccc4c(cnn4Cc4ccccc4)c3)c12	0.02	0.04	–
CCOC(=O)c1cn2ncnc(Nc3ccc4[nH]ncc4c3)c2c1CC	–	3.3	–
CCOC(=O)c1cn2ncnc(NCc3ccccc3)c2c1CC	0.2	7.2	–
CCOC(=O)c1cn2ncnc(Nc3ccc(F)c(Cl)c3)c2c1CC	0.09	2.8	–
CCOC(=O)c1cn2ncnc(Nc3cccc(Br)c3)c2c1CC	0.06	3	–
CCNCc1cn2ncnc(Nc3ccc4c(cnn4Cc4ccccc4)c3)c2c1CC	7.4	9.7	–
CCc1c(C(=O)N(C)C)cn2ncnc(Nc3ccc4c(cnn4Cc4ccccc4)c3)c12	0.2	0.5	–
CCc1c(CC(N)=O)cn2ncnc(Nc3ccc4c(cnn4Cc4ccccc4)c3)c12	1.1	2.4	–
CCOC(=O)c1cn2ncnc(Nc3ccc(Oc4ccccc4)cc3)c2c1CC	0.61	0.82	–
CCOC(=O)c1cc2c(Nc3ccc4c(cnn4Cc4ccccc4)c3)ncnn2c1	0.12	0.39	–
CCOC(=O)c1cn2ncnc(Nc3ccc4c(cnn4Cc4ccccc4)c3)c2c1C(C)C	0.2	0.21	–
CCOC(=O)c1cn2ncnc(Nc3ccc4c(cnn4Cc4ccccc4)c3)c2c1Cc1ccccc1	> 25	> 25	–
CCc1c(C(N)=O)cn2ncnc(Nc3ccc4c(cnn4Cc4ccccc4)c3)c12	0.12	0.11	–
CCc1c(C(=O)NCCCn2ccnc2)cn2ncnc(Nc3ccc4c(cnn4Cc4ccccc4)c3)c12	0.04	0.03	–
CCOC(=O)c1cn2ncnc(Nc3ccc4c(cnn4Cc4ccccc4)c3)c2c1CC	0.12	0.18	–
CCc1c(C(=O)OCCCn2ccnc2)cn2ncnc(Nc3ccc4c(cnn4Cc4ccccc4)c3)c12	0.17	0.24	–
CCc1c(NC(=O)OCCn2ccnc2)cn2ncnc(Nc3ccc4c(cnn4Cc4ccccc4)c3)c12	0.04	0.04	IC50 (Focal adhesion kinase 1): > 25 µM; IC50 [3]: > 25 µM; IC50 [4]: > 10 µM; IC50 [5]: > 25 µM; IC50 [6]: > 25 µM
CCc1c(CO)cn2ncnc(Nc3ccc4c(cnn4Cc4ccccc4)c3)c12	0.49	0.73	–
CCc1c(C(=O)NC)cn2ncnc(Nc3ccc4c(cnn4Cc4ccccc4)c3)c12	0.07	0.13	–
CCCc1c(C(=O)OCC)cn2ncnc(Nc3ccc4c(cnn4Cc4ccccc4)c3)c12	0.95	1.2	–
CCc1c(CC(=O)O)cn2ncnc(Nc3ccc4c(cnn4Cc4ccccc4)c3)c12	1.6	0.68	–
CCc1c(NC(=O)OCc2ccccc2)cn2ncnc(Nc3ccc4c(cnn4Cc4ccccc4)c3)c12	0.21	0.17	–
CCOCc1cn2ncnc(Nc3ccc4c(cnn4Cc4ccccc4)c3)c2c1CC	0.95	1.4	–
